Results published in EP4656642A1, “ESTROGEN RECEPTOR PROTEOLYSIS TARGETING CHIMERA COMPOUND AND USE THEREOF” (GAN & LEE PHARM CO., LTD, priority 2023, dated 2024).

Tests used:
Format in all cases: cell-based
ERα [1] = molecular target: T1, ERα (Homo sapiens, UniProt P03372); assay: Degradation of ERα in T-47D cells (immunoblotting, 4 h); parameters: host or cells: T-47D
T1 sequence (P03372 1-595): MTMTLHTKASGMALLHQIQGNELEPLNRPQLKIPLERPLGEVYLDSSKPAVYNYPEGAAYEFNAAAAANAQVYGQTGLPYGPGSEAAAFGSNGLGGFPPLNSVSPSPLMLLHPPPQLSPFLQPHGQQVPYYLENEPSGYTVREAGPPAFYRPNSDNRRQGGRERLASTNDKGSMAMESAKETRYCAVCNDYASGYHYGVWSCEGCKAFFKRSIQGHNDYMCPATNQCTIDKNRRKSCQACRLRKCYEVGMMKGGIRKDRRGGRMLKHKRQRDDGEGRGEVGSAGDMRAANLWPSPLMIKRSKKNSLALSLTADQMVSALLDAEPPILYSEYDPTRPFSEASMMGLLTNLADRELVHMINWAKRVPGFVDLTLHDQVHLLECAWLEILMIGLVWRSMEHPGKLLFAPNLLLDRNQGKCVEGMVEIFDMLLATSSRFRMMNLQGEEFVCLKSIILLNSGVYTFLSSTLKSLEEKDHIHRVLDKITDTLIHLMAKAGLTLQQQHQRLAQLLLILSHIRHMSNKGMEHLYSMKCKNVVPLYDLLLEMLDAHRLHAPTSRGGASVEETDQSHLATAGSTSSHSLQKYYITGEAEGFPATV
Summary of the method: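 T-47D cells were treated with compound (final 0.15-1000 nM, DMSO) for 4 h at 37°C, 5% CO2. Cells were lysed in RIPA buffer with protease inhibitor, and ERα protein in the cleared lysate was measured by immunoblotting.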

T-47D cells = assay: Inhibition of cell proliferation in T-47D cells (CCK-8, 6 days); settings: 6 days of treatment, Table 3
Summary of the method: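 T-47D cells at 3,000 cells/well in RPMI 1640 with 10% FBS were exposed to a concentration series of PROTAC compounds for 6 days at 37 °C, 5% CO2. Viability was read by CCK-8, and IC50 values were derived for proliferation inhibition.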

ERα [2] = molecular target: T1, ERα; assay: Degradation of ERα in MCF-7 cells (immunoblotting, 4 h)
Summary of the method: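 MCF-7 cells treated 4 h at 37°C with compounds at 0.15-1000nM final. ERα in lysates measured by immunoblot, with band grayscale normalized to an internal reference protein. Degradation rate calculated against DMSO-treated control.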

MCF-7 cells = assay: Inhibition of cell proliferation of MCF-7 cells (CCK-8, 9 days); settings: treated for 9 days, CCK-8 kit (Table 6)
Summary of the method: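 MCF-7 cells seeded at 800 cells/well in DMEM with 10% FBS, exposed to a range of compound concentrations for 9 days at 37°C, 5% CO2. Viability read by CCK-8; IC50 derived for proliferation inhibition.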

Structure (SMILES)	Degradation rate (%) of ERα in T-47D cells (ERα [1]; 1nM compound)	Degradation rate (%) of ERα in T-47D cells (ERα [1]; 10nM compound)	IC50 (T-47D cells)	Degradation rate (%) of ERα in MCF-7 cells (ERα [2]; 1nM compound)	Degradation rate (%) of ERα in MCF-7 cells (ERα [2]; 10nM compound)	IC50 (MCF-7 cells)
O=C1CCC(N2Cc3c(ccc4c3OCC43CCN(C(=O)C4CC5(CCN(c6ccc([C@@H]7c8ccc(O)cc8CC[C@@H]7c7ccccc7)cc6)CC5)C4)CC3)C2=O)C(=O)N1 (stereo partly drawn) [A86]	46%	74%	1.64 nM	5%	32%	85 nM
O=C1CCC(N2Cc3c(ccc4c3OCC43CCN(C(=O)C4CCN(C5CCN(c6ccc([C@@H]7c8ccc(O)cc8CC[C@@H]7c7ccccc7)cc6)CC5)CC4)CC3)C2=O)C(=O)N1 (stereo partly drawn) [H22]	56%	73%	1.57 nM	32%	64%	3.5 nM
CN(C1CCN(c2ccc([C@@H]3c4ccc(O)cc4CC[C@@H]3c3ccccc3)cc2)CC1)[C@H]1CC[C@H](C(=O)N2CCC3(CC2)COc2c3ccc3c2CN(C2CCC(=O)NC2=O)C3=O)CC1 (stereo partly drawn) [N2]	10%	42%	3.63 nM	-7%	-8%	247 nM
O=C1CCC(N2Cc3c(ccc4c3OCC43CCN(CC(=O)N4CC5(CCN(c6ccc([C@@H]7c8ccc(O)cc8CC[C@@H]7c7ccccc7)cc6)CC5)C4)CC3)C2=O)C(=O)N1 (stereo partly drawn) [K5]	73%	85%	1.61 nM	30%	58%	132 nM

More lines, in order of falling IC50 (T-47D cells), values ahead:

Degradation rate (%) of ERα in T-47D cells (ERα [1]; 1nM compound)	Degradation rate (%) of ERα in T-47D cells (ERα [1]; 10nM compound)	IC50 (T-47D cells)	Degradation rate (%) of ERα in MCF-7 cells (ERα [2]; 1nM compound)	Degradation rate (%) of ERα in MCF-7 cells (ERα [2]; 10nM compound)	IC50 (MCF-7 cells)	Structure (SMILES)
-3%	-31%	594 nM	-39%	-54%	5020 nM	O=C1CCC(N2Cc3c(ccc4c3OCC43CCN(C4CCN(C(=O)c5ccc([C@@H]6c7ccc(O)cc7CC[C@@H]6c6ccccc6)cc5)CC4)CC3)C2=O)C(=O)N1 (stereo partly drawn) [H9]
27%	47%	37.4 nM	-34%	22%	180 nM	C[C@@H]1Cc2c(ccc3[nH]ncc23)[C@@H](c2c(F)cc(N3CCN(C[C@H]4CC[C@H](C(=O)N5CCC6(CC5)COc5c6ccc6c5CN(C5CCC(=O)NC5=O)C6=O)CC4)CC3)cc2F)N1CC(F)F (stereo partly drawn) [C12]
12%	66%	8.51 nM	24%	52%	> 100000 nM	O=C1CCC(N2Cc3c(ccc4c3OCC43CCN(C(=O)C4CCC5(CC4)CCN(c4ccc([C@@H]6c7ccc(O)cc7CC[C@@H]6c6ccccc6)cc4)CC5)CC3)C2=O)C(=O)N1 (stereo partly drawn) [L27]
29%	64%	7.09 nM	29%	51%	39 nM	O=C1CCC(N2Cc3c(ccc4c3OCC43CCN(C4CC5(CCN(c6ccc([C@@H]7c8ccc(O)cc8CC[C@@H]7c7ccccc7)cc6)CC5)C4)CC3)C2=O)C(=O)N1 (stereo partly drawn) [L16]
23%	48%	6.02 nM	-9%	-50%	1720 nM	O=C1CCC(N2Cc3cc4c(cc3C2=O)OC2(CC4)CN(C3CC4(C3)CC3(CCN(c5ccc([C@@H]6c7ccc(O)cc7CC[C@@H]6c6ccccc6)cc5)CC3)C4)C2)C(=O)N1 (stereo partly drawn) [H25]
35%	68%	1.58 nM	17%	47%	2250 nM	O=C1CCC(N2Cc3c(ccc4c3OCC43CCN(C(=O)CN(CC4CC4)CC4CCN(c5ccc([C@@H]6c7ccc(O)cc7CC[C@@H]6c6ccccc6)cc5)CC4)CC3)C2=O)C(=O)N1 (stereo partly drawn) [J16]
